Tested on: HepG2/C3A
Assay: Drug-induced liver injury (DILI) simulated by adjusting air supply from the well bottom, island-shaped 3Ds on PDMS
Assay type: cell-based, human
Details: 24 h exposure, highest concentration 20 mM
Method: Compounds were dissolved at 200 times the highest test concentration in 100% DMSO. […] The final DMSO concentration was set constant and less than 0.4% over the tested dilutions. […] Therefore, serially-diluted compounds were finally diluted in situ at 1/2 and mixed by a gentle rocking motion a few times. […]
Cells grown as island 3Ds in the gas-permeable PDMS membrane were exposed to drug treatments described above. […] The plates were equilibrated to 5% CO2 and 3TC and measured by Opera (PerkinElmer).
For detailed global image acquisition, a 20× objective was used in spinning-disc confocal mode. […] Then the cell area was estimated for selected nuclei in the regions, and TMRM emission intensity in the cell regions was calculated for the selected cells over the 4 designated fields per well. […] For the dose-response and Z′ values, the intensity values were analyzed on a projection image representing the peak intensity values for each of 4 Z-planes projected onto a single image. For the detailed analysis of the entire 3Ds, each Z-plane was individually analyzed.

## CC(=O)Nc1ccc(O)cc1 [Acetaminophen, acetaminophen]
3Ds on PDMS membrane left entirely bare
  toxicity response (dose response curve): apparently unresponsive
3Ds on PDMS membrane partially-sealed
  toxicity response (dose response curve): suggesting a DILI effect

Reference: patent US20160215267A1, “METHODS FOR GENERATING 3D CELL CULTURE MODEL IN HIGH RESPIRATION ENVIRONMENTS FOR HIGH-CONTENT ANALYSES AND SCREENING” (IKKO-ZU CORPORATION, priority 2015, published 2016)
